Test results as given in EP0928793B1, “Thiazole derivatives” (F. HOFFMANN-LA ROCHE AG, priority 1998, dated 1999).

Molecular target: T1, vitronectin receptor αvβ3 (Homo sapiens, UniProt P05106+P06756)
T1 construct: Human placenta is stored at -80°C immediately after its excision; In order to extract the receptor; from tissue; host or cells: human placenta
Experiment: Inhibition of fibrinogen binding to immobilised vitronectin receptor αvβ3 (ELISA)
Conditions: fibrinogen 1.5 µg/ml, receptor from human placenta coated on microtitre plates, overnight at room temperature, ELISA detection; read-out: VNR IC50
Protocol: The inhibition of the binding of adhesive proteins such as e.g. fibrinogen to vitronectin receptors (such as e.g. αvβ3, αvβ5, αvβ6, αvβ8, etc. or to the fibrinogen receptor (αIIbβ3) by compounds of formula I can be determined as described by L. Alig et al. (J.Med.Chem. 1992, 35, 4393-4407).
In detail thereto, the wells of microtitre plates (Nunc-Immunoplate MaxiSorp) were coated overnight at 4°C with the vitronectin receptor αvβ3 (from human placenta, 100 µl/well) in a buffer system with 150 mmol/l NaCl, 1 mmol/CaCl2, 1 mmol/l MgCl2, 0.0005% Triton X-100 and 20 mmol/l Tris HCl, pH 7.4. The non-specific binding sites were blocked by incubation with 3.5% bovine serum albumin (BSA from Fluka) at 20°C for at least 1 h. Before the beginning of the test the plates were washed in each case once with 150 mmol/l NaCl, 1 mmol/l CaCl2, 1 mmol/l MgCl2 and 20 mmol/l Tris HCI, pH 7.4 (buffer A). The thus-coated plates can be stored for at least 2 months in the presence of 0.05% NaN3 (in buffer A) at 4°C in a humidity chamber without loss of binding activity. Fibrinogen (IMCO, free from fibronectin) was diluted to 1.5 µg/ml in buffer A in the presence of 1% BSA. The wells coated with the receptor were incubated with fibrinogen (100 µl/well) overnight at room temperature in the absence of or in the presence of increasing concentrations of RGDS (as the reference substance) or the compounds to be measured. Non-bound fibrinogen was removed by three-fold washing with buffer A and bound fibrinogen was detected by an ELISA procedure. Antibodies of rabbits directed against human fibrinogen (Dakopatts, Denmark), diluted in buffer A in the presence of 0.1% BSA, were added at room temperature for 1h., followed by incubation with biotinylated antibodies directed against rabbit immunoglobulin (Amersham) for 30 min. Non-bound antibodies were removed by three-fold washing with buffer A. Thereafter, the pre-formed streptavidin-biotinylated peroxidase complex (Amersham) was added for 30 min. Three-fold washing with buffer A was again carried out. After addition of the peroxidase substrate ABTS (2,2'-azino-bis(3-ethylbenzothiazoline-6-sulphonic acid), Boehringer Mannheim) the enzyme activity was measured with a multichannel photometer (UVmax, Molecular Devices). The difference between total binding activity (in the absence of a test substance) and non-specific binding activity (in the presence of 100 µM RGDS) is taken as the specific binding activity. The concentration of a test substance which is required to inhibit the specific binding activity by 50% was defined as the IC50.
The isolation of the receptor avb3 used in the test can be carried out as follows: Human placenta is stored at -80°C immediately after its excision. In order to extract the receptor, each placenta is superficially thawed and cut into narrow strips with a scalpel. The pieces are washed twice with a buffer of 150 mmol/l NaCl, 1 mmol/l CaCl2, 1 mmol/l MgCl2 and 20 mmol/l Tris HCl (pH 7.4). The proteins are extracted at room temperature for one hour with a buffer solution from 1% Triton X-100, 150 mmol/l NaCl, 1 mmol/l CaCl2, 1 mmol/l MgCl2, 20 mmol/l Tris HCl, 0.02% NaN3, 0.5 mmol/l phenylmethanesulphonyl fluoride, 1 mmol/l leupeptin and 2 mmol/l N-ethylmaleimide (pH 7.4) and filtered through sterile gauze. The filtrate is centrifuged at 30000 g for 30 min. at 4°C. The glycoproteins are firstly separated with the aid of a concanavalin A-Sepharose 4B column. The proteins bound to the column are eluted and then added to a Aeg-RGDS column. After repeated washing the bound vitronectin receptor is eluted by 3 mmol/l RGDS in a buffer of 0.1% Triton X-100, 150 mmol/l NaCl, 20 mmol/l Tris HCl, 1 mmol/l CaCl2, 1 mmol/l MgCl2, 0.05% NaN3 (pH 7.0).

T1 sequence (P06756 31-889 limits assumed): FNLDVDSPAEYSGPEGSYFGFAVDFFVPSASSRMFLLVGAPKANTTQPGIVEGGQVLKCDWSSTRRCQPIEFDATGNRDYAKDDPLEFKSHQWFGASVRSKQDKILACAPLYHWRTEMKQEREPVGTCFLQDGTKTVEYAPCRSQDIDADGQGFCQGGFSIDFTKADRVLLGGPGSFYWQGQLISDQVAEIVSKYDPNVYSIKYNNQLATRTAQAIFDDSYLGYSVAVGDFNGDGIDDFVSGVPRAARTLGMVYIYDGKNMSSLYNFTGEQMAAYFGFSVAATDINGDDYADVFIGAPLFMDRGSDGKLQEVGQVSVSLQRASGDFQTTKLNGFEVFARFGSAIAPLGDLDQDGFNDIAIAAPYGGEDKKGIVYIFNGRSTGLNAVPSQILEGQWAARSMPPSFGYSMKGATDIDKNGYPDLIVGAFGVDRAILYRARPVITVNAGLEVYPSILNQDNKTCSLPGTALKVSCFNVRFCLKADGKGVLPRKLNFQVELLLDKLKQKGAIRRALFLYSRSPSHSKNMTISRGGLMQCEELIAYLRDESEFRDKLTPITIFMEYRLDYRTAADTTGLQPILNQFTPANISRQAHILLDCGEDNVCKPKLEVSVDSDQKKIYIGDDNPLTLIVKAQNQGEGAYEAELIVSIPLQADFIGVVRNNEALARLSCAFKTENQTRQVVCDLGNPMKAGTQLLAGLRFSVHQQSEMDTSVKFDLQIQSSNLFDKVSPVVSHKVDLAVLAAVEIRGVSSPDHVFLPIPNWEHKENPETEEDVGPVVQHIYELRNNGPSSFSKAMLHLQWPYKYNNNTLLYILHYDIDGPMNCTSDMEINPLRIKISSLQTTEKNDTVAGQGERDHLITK
T1 sequence (P06756 891-1048 partner limits assumed): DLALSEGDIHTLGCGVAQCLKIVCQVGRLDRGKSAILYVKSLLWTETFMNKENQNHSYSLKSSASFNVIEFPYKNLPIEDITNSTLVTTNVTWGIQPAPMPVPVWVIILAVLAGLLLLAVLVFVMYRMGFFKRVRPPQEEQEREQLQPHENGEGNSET
T1 sequence (P05106 27-788): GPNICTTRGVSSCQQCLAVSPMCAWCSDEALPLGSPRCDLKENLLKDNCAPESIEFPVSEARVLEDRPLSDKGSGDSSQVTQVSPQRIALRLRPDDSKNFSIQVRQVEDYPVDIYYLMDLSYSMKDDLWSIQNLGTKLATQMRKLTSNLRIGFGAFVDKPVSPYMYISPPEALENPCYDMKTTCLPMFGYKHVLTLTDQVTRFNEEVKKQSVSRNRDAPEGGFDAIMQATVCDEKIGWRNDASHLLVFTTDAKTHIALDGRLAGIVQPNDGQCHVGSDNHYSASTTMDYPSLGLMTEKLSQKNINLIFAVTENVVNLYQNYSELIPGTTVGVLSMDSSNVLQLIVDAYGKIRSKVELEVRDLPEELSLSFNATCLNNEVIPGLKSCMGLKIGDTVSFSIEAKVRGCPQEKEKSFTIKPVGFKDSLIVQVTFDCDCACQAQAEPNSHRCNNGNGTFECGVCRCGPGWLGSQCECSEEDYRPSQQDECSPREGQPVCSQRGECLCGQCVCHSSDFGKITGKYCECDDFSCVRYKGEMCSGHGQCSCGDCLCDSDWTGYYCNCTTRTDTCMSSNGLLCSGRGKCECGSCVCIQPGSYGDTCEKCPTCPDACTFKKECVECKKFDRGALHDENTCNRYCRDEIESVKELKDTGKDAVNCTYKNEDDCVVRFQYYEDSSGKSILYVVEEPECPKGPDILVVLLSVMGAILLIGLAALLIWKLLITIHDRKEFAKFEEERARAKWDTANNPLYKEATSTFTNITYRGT

Compound | IC50
Cc1nc(N=C(N)N)sc1C(=O)N1CCCC(COCC(=O)O)C1 (racemic) [rac [1-(2-guanidino-4-methyl-thiazole-5-carbonyl)-piperidin-3-ylmethoxy]-acetic acid] | 39 nM
NC(N)=Nc1nc(-c2ccccc2)c(C(=O)N2CCCC(COCC(=O)O)C2)s1 (racemic) [rac [1-(2-guanidino-4-phenyl-thiazole-5-carbonyl)-piperidin-3-ylmethoxy]-acetic acid] | 70 nM
CCCc1nc(N=C(N)N)sc1C(=O)N1CCCC(COCC(=O)O)C1 (racemic) [rac [1-(2-guanidino-4-propyl-thiazole-5-carbonyl)-piperidin-3-ylmethoxy]-acetic acid] | 18 nM
NC(N)=Nc1nc(C2CCCC2)c(C(=O)N2CCCC(COCC(=O)O)C2)s1 (racemic) [rac [1-(4-cyclopentyl-2-guanidino-thiazol-5-ylcarbonyl)-piperidin-3-ylmethoxy]-acetic acid] | 90 nM
CC(C)(C)c1nc(N=C(N)N)sc1C(=O)N1CCCC(COCC(=O)O)C1 (racemic) [rac [1-(4-tert-butyl-2-guanidino-thiazole-5-carbonyl)-piperidin-3-ylmethoxy]-acetic acid] | 22 nM
Cc1nc(NC(=N)N)sc1C(=O)N1CCC[C@@H](COCC(=O)O)C1 [(R)-[1-(2-guanidino-4-methyl-thiazole-5-carbonyl)-piperidin-3-ylmethoxy]-acetic acid] | 50 nM
